Reference: patent US9144239B2, “Macrocyclic picolinamides as fungicides” (DOW AGROSCIENCES LLC, priority 2012, dated 2015)
Like-named read-outs stand apart in the source and are kept apart here.

What was measured:
Format in all cases: in vivo
[1] = system: Puccinia triticina; synonym: Puccinia recondita f. sp. tritici; test: Fungicide mobility (dropline mobility test): wheat brown rust (PUCCRT); conditions: 1 ug/leaf
Method in brief: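 A 2 μl drop of formulated compound (EC blank, 110 ppm Triton X-100 water) was applied to a line 5 cm from the tip of primary leaves of "Yuma" wheat seedlings, 6 replicates. Inoculation with PUCCRT was done 1 day after or 3 days before application. Once disease was fully expressed on controls, the acropetal disease-free zone was measured as percent of line-to-tip distance.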

Erysiphe cichoracearum = test: Fungicidal activity: powdery mildew of cucumber (ERYSCI); conditions: Golovinomyces cichoracearum, 24 h, 1 Day Protectant, read-out: Disease Control ERYSCI 1DP
Protocol: Technical grades of materials were dissolved in acetone, which were then mixed with nine volumes of water containing 110 ppm Triton X-100. The fungicide solutions were applied onto wheat seedlings using an automated booth sprayer to run-off. All sprayed plants were allowed to air dry prior to further handling. Wheat plants (variety Yuma) were grown from seed in a greenhouse in 50% mineral soil/50% soil-less Metro mix until the first leaf was fully emerged, with 7-10 seedlings per pot. These plants were inoculated with an aqueous spore suspension of Septoria tritici either prior to or after fungicide treatments. After inoculation the plants were kept in 100% relative humidity (one day in a dark dew chamber followed by two to three days in a lighted dew chamber at 20° C.) to permit spores to germinate and infect the leaf. The plants were then transferred to a greenhouse set at 20° C. for disease to develop. When disease symptoms were fully expressed on the 1st leaves of untreated plants, infection levels were assessed on a scale of 0 to 100 percent disease severity. Percent disease control was calculated using the ratio of disease severity on treated plants relative to untreated plants. Evaluation of Fungicidal Activity: Powdery Mildew of Cucumber (Erysiphe cichoracearum; Bayer Code […]) Cucumber seedlings (variety Bush Pickle) were grown in soil-less Metro mix, with one plant per pot, and used in the test when 12 to 14 days old. Plants were inoculated with a spore suspension 24 hr following fungicide treatments. After inoculation the plants remained in the greenhouse set at 20° C. until disease was fully expressed. Fungicide formulation, application and disease assessment on the sprayed leaves followed the procedures as described in the Example A.

Venturia inaequalis = test: Fungicidal activity: apple scab (VENTIN); conditions: 24 h, 1 Day Protectant, read-out: Disease Control VENTIN 1 DP
Protocol: Technical grades of materials were dissolved in acetone, which were then mixed with nine volumes of water containing 110 ppm Triton X-100. The fungicide solutions were applied onto wheat seedlings using an automated booth sprayer to run-off. All sprayed plants were allowed to air dry prior to further handling. Wheat plants (variety Yuma) were grown from seed in a greenhouse in 50% mineral soil/50% soil-less Metro mix until the first leaf was fully emerged, with 7-10 seedlings per pot. These plants were inoculated with an aqueous spore suspension of Septoria tritici either prior to or after fungicide treatments. After inoculation the plants were kept in 100% relative humidity (one day in a dark dew chamber followed by two to three days in a lighted dew chamber at 20° C.) to permit spores to germinate and infect the leaf. The plants were then transferred to a greenhouse set at 20° C. for disease to develop. When disease symptoms were fully expressed on the 1st leaves of untreated plants, infection levels were assessed on a scale of 0 to 100 percent disease severity. Percent disease control was calculated using the ratio of disease severity on treated plants relative to untreated plants. Evaluation of Fungicidal Activity: Apple Scab (Venturia inaequalis; Bayer Code […]) Apple seedlings (variety McIntosh) were grown in soil-less Metro mix, with one plant per pot. Seedlings with two expanding young leaves at the top (older leaves at bottom of the plants were trimmed) were used in the test. Plants were inoculated with a spore suspension of Venturia inaequalis 24 hr after fungicide treatment and kept in a 22° C. dew chamber with 100% RH for 48 hr, and then moved to a greenhouse set at 20° C. for disease to develop. Fungicide formulation, application and disease assessment on the sprayed leaves followed the procedures as described in the Example A.

Leptosphaeria nodorum = test: Fungicidal activity: wheat glume blotch (LEPTNO); conditions: Parastagonospora nodorum, 24 h, 1 Day Protectant, read-out: Disease Control LEPTNO 1 DP
Protocol: Technical grades of materials were dissolved in acetone, which were then mixed with nine volumes of water containing 110 ppm Triton X-100. The fungicide solutions were applied onto wheat seedlings using an automated booth sprayer to run-off. All sprayed plants were allowed to air dry prior to further handling. Wheat plants (variety Yuma) were grown from seed in a greenhouse in 50% mineral soil/50% soil-less Metro mix until the first leaf was fully emerged, with 7-10 seedlings per pot. These plants were inoculated with an aqueous spore suspension of Septoria tritici either prior to or after fungicide treatments. After inoculation the plants were kept in 100% relative humidity (one day in a dark dew chamber followed by two to three days in a lighted dew chamber at 20° C.) to permit spores to germinate and infect the leaf. The plants were then transferred to a greenhouse set at 20° C. for disease to develop. When disease symptoms were fully expressed on the 1st leaves of untreated plants, infection levels were assessed on a scale of 0 to 100 percent disease severity. Percent disease control was calculated using the ratio of disease severity on treated plants relative to untreated plants. Evaluation of Fungicidal Activity: Wheat Glume Blotch (Leptosphaeria nodorum; Bayer Code […]) Wheat plants (variety Yuma) were grown from seed in a greenhouse in 50% mineral soil/50% soil-less Metro mix until the first leaf was fully emerged, with 7-10 seedlings per pot. These plants were inoculated with an aqueous spore suspension of Leptosphaeria nodorum 24 hr after fungicide treatments. After inoculation the plants were kept in 100% relative humidity (one day in a dark dew chamber followed by two days in a lighted dew chamber at 20° C.) to permit spores to germinate and infect the leaf. The plants were then transferred to a greenhouse set at 20° C. for disease to develop. Fungicide formulation, application and disease assessment followed the procedures as described in the Example A.

Phakopsora pachyrhizi = test: Fungicidal activity: Asian soybean rust (PHAKPA); conditions: 25 ppm; for Disease Control PHAKPA 1DP: 1 Day Protectant; for Disease Control PHAKPA 3DC: 3 Day Curative
Protocol: Evaluation of Fungicidal Activity: Asian Soybean Rust (Phakopsora pachyrhizi; Bayer Code […]) Technical grades of materials were dissolved in acetone, which were then mixed with nine volumes of water containing 0.011% Tween 20. The fungicide solutions were applied onto soybean seedlings using an automated booth sprayer to run-off. All sprayed plants were allowed to air dry prior to further handling. Soybean plants (variety Williams 82) were grown in soil-less Metro mix, with one plant per pot. Two weeks old seedlings were used for testing. […] Plants were incubated for 24 h in a dark dew room at 22° C. and 100% RH then transferred to a growth room at 23° C. for disease to develop. Disease severity was assessed on the sprayed leaves.

[2] = 24 h, 1 Day Protectant Mobility, read-out: Dropline Mobility Test PUCCRT 1DPM
[3] = 72 h, 3 Day Curative Mobility, read-out: Dropline Mobility Test PUCCRT 3DCM

Structure (SMILES)	pest or weed control at 1 µg/leaf [1, 2] [%]	pest or weed control at 1 µg/leaf [1, 3] [%]	pest or weed control at 100 ppm (Erysiphe cichoracearum) [%]	pest or weed control at 100 ppm (Venturia inaequalis) [%]	pest or weed control at 100 ppm (Leptosphaeria nodorum) [%]	Disease Control PHAKPA 1DP (Phakopsora pachyrhizi)	Disease Control PHAKPA 3DC (Phakopsora pachyrhizi)
COc1ccnc(C(=O)N[C@H]2COC[C@H](OCC(C)C)[C@@H](OCC(C)C)[C@H](C)OC2=O)c1OCOC(=O)C(C)C [Compound 2]	80 to 100	80 to 100	80 to 100				
COc1ccnc(C(=O)N[C@H]2COC[C@H](OCC(C)C)[C@@H](OCC(C)C)[C@H](C)OC2=O)c1OCOC(C)=O [Compound 3, (2-((3S,7S,8S,9S)-7,8-diisobutoxy-9-methyl-2-oxo-1,5-dioxonan-3-ylcarbamoyl)-4-methoxypyridin-3-yloxy)methyl]	80 to 100	80 to 100	0 to 80	0 to 80	80 to 100	A (80-100)	
COc1ccnc(C(=O)NC2COC[C@H](OCc3ccccc3)[C@@H](OCc3ccccc3)[C@H](C)OC2=O)c1OCOC(C)=O (stereo partly shown) [Compound 12]	0 to 80	0 to 80		0 to 80	80 to 100		
CCCCO[C@H]1COC[C@H](NC(=O)c2nccc(OC)c2OCOC(C)=O)C(=O)O[C@@H](C)[C@@H]1OCCOC [Compound 54]					80 to 100		
CCCCO[C@H]1COC[C@H](NC(=O)c2nccc(OC)c2OCOC(C)=O)C(=O)O[C@@H](C)[C@@H]1OCC(F)F [Compound 55]					80 to 100		
COc1ccnc(C(=O)N[C@H]2COC[C@H](OC(=O)C(C)C)[C@@H](OC(=O)C(C)C)[C@H](C)OC2=O)c1OCOC(C)=O [Compound 57]			0 to 80		0 to 80		
COc1ccnc(C(=O)N[C@H]2COC[C@H](OCCCc3ccccc3)[C@@H](OCCCc3ccccc3)[C@H](C)OC2=O)c1OCOC(C)=O [Compound 60]	0 to 80			0 to 80	80 to 100		
COc1ccnc(C(=O)N[C@H]2COC[C@H](OC)[C@@H](OC)[C@H](C)OC2=O)c1OCOC(C)=O [Compound 65]	0 to 80	0 to 80			0 to 80		
COc1ccnc(C(=O)N[C@H]2COC[C@H](OCCCC(F)(F)F)[C@@H](OCCCC(F)(F)F)[C@H](C)OC2=O)c1OCOC(C)=O [Compound 68]	0 to 80	0 to 80	0 to 80	0 to 80	80 to 100		
COc1ccnc(C(=O)N[C@H]2COC[C@H](OCC(C)C)[C@@H](OC3CCCCC3)[C@H](C)OC2=O)c1OCOC(C)=O [Compound 77]	80 to 100	0 to 80	0 to 80	0 to 80	80 to 100	B (More than 0-Less than 80)	
CCC(C)(C)O[C@H]1COC[C@H](NC(=O)c2nccc(OC)c2OCOC(C)=O)C(=O)O[C@@H](C)[C@@H]1OCC(C)C [Compound 78]	0 to 80	0 to 80	80 to 100	80 to 100	80 to 100	A (80-100)	
COc1ccnc(C(=O)N[C@H]2COC[C@H](Oc3ccccc3)[C@@H](Oc3ccccc3)[C@H](C)OC2=O)c1OCOC(C)=O [Compound 84]	80 to 100		0 to 80	0 to 80	80 to 100	A (80-100)	A (80-100)
COc1ccnc(C(=O)N[C@H]2COC[C@H](OCC(C)C)[C@@H](Oc3ccccc3)[C@H](C)OC2=O)c1OCOC(C)=O [Compound 85]	80 to 100	80 to 100	0 to 80	0 to 80	80 to 100		
COc1ccnc(C(=O)N[C@H]2COC[C@H](Oc3ccccc3)[C@@H](OCC(C)C)[C@H](C)OC2=O)c1OCOC(C)=O [Compound 86]	80 to 100	0 to 80	0 to 80	0 to 80	80 to 100	A (80-100)	A (80-100)
CCCO[C@H]1COC[C@H](NC(=O)c2nccc(OC)c2OCOC(C)=O)C(=O)O[C@@H](C)[C@@H]1Oc1ccccc1 [Compound 221]						A (80-100)	A (80-100)
CCCO[C@H]1[C@H](C)OC(=O)[C@@H](NC(=O)c2nccc(OC)c2OCOC(C)=O)COC[C@@H]1Oc1ccccc1 [Compound 222]						A (80-100)	A (80-100)
COc1ccnc(C(=O)N[C@H]2COC[C@H](Oc3ccc(F)cc3)[C@@H](Oc3ccc(F)cc3)[C@H](C)OC2=O)c1OC(C)=O [Compound 229, 2-(((3S,7S,8S,9S)-7,8-bis(4-fluorophenoxy)-9-methyl-2-oxo-1,5-dioxonan-3-yl)carbamoyl)-4-methoxypyridin-3-yl acetate]			0 to 80		80 to 100		
COc1ccnc(C(=O)N[C@H]2COC[C@H](Oc3ccc(F)cc3)[C@@H](Oc3ccc(F)cc3)[C@H](C)OC2=O)c1OCOC(C)=O [Compound 231]			0 to 80	0 to 80	80 to 100		
